Assay results taken from patent US8816119B2, “Arylamide derivatives having antiandrogenic properties” (Medeia Therapeutics Ltd, priority 2010, dated 2014).
Residue numbers refer to the chain shown, from its start.

Key:
Assay type in all cases: cell-based
WT AR = molecular target: T1, WT AR (Homo sapiens, UniProt P10275); test: Antagonism in WT AR, AR transactivation reporter gene assay in COS-1 cells, competitive setting with 50 nM testosterone; conditions: 18 h
T1 construct: expressed in transfected cells; host or cells: COS-1
T1 sequence (P10275 1-920): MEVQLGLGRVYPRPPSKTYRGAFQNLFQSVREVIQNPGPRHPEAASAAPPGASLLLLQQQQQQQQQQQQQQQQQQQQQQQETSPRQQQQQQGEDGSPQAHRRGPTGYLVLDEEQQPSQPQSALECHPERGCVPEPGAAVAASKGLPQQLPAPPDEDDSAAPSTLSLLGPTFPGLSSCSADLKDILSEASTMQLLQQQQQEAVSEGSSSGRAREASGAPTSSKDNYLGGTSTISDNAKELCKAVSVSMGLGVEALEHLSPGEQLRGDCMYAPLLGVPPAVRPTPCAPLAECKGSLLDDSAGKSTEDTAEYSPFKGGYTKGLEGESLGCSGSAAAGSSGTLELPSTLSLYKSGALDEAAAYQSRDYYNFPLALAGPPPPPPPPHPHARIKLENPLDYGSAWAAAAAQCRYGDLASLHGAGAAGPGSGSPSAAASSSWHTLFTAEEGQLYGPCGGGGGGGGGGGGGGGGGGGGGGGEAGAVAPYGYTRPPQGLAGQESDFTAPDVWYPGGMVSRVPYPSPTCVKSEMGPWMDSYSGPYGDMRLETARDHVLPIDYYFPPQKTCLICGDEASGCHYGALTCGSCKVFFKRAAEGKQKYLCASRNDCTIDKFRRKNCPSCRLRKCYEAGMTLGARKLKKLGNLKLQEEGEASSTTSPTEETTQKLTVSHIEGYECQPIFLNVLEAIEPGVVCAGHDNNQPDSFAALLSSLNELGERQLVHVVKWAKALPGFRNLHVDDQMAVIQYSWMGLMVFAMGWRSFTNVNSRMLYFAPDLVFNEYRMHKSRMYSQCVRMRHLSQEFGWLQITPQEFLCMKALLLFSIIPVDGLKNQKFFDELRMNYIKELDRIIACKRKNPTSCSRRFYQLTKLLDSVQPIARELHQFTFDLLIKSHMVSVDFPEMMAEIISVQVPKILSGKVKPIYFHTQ
Method: After 18 h, reporter gene activities (LUC and beta-galactosidase) were determined according to standard methods. The data are expressed as relative LUC activity (luciferase light units divided by beta-galactosidase A420nm to control for transfection efficiency) of a given compound in relation to the activity of a reference test item (=100%).
Antagonism in WT AR of compounds of the present invention was measured in AR transctivation assay in COS-1 cells in competitive setting using testosterone as a reference agonist as described above. […] Relative LUC activity representing AR-dependent transcription obtained by exposure to testosterone alone was set to 100%.

W741L AR = molecular target: T2, W741L AR (Homo sapiens, UniProt P10275, W742L); test: Agonism in W741L mutant AR, AR transactivation assay in COS-1 cells, test compounds alone; conditions: 10 microM, compound alone
T2 construct: expressed in transfected cells; host or cells: COS-1
T2 sequence (P10275 1-920 W742L): T1 sequence (P10275 1-920) with W742L
Method: COS-1 (American Type Culture Collection) were cultured in DMEM supplemented with 10% FBS, penicillin (6.25 U/ml) and streptomycin (6.25 μg/ml) and seeded onto 48-well plates (50 000 cells/well) one day before transfection. Transfection media containing 2.5% charcoal-stripped FBS in DMEM was changed on cells 4 h prior to transfection. Cells were transfected with 50 ng of reporter gene plasmid (pPB-286/+32-LUC; PB, probasin promoter), 5 ng of AR expression plasmid (pSG5-hAR), and 5 ng of pCMVβ (an internal, beta-galactosidase control for transfection efficiency and cell growth) using TranslT-LT1 reagent (Mirus Bio Corporation) according to the manufacturer's instructions. […] After 18 h, reporter gene activities (LUC and beta-galactosidase) were determined according to standard methods. The data are expressed as relative LUC activity (luciferase light units divided by beta-galactosidase A420nm to control for transfection efficiency) of a given compound in relation to the activity of a reference test item (=100%).
Agonism in W741L AR of compounds of the present invention was measured in AR transactivation assay in COS-1 cells as described above except that AR expression vector harboring the W741L mutation was used instead of the WT AR. The transfected cells were exposed to test compounds alone.

T877A AR = molecular target: T3, T877A AR (Homo sapiens, UniProt P10275, T878A); test: Agonism in T877A mutant AR, AR transactivation assay in COS-1 cells, test compounds alone; conditions: 10 microM, compound alone
T3 construct: expressed in transfected cells; host or cells: COS-1
T3 sequence (P10275 1-920 T878A): T1 sequence (P10275 1-920) with T878A
Source text: The transfected cells were exposed to test compounds alone. Testosterone was used as reference agonist, and its' relative LUC activity representing AR-dependent transcription was set to 100%.

Row | Structure (SMILES) | Relative LUC activity (%) indicating residual androgen activity in relation to testosterone (100%) (WT AR; 1 microM compound) | Relative LUC activity (%) indicating residual androgen activity in relation to testosterone (100%) (WT AR; 10 microM compound) | Relative LUC activity (%) in W741L AR in relation to BIC (100%) (W741L AR) | Relative LUC activity (%) in T877A AR in relation to testosterone (100%) (T877A AR)
1 | N#Cc1ccc(NC(=O)C(O)(CS(=O)(=O)c2ccc(F)c(F)c2)c2ccc(C(F)(F)F)cc2)cc1Cl (centres unmarked) [Example 10, N-(3-chloro-4-cyanophenyl)-3-[(3,4-difluorobenzene)sulfonyl]-2-hydroxy-2-[4-(trifluoromethyl)phenyl]propanamide] | 23% | 6% | 3% | 1%
2 | N#Cc1ccc(NC(=O)C(O)(CS(=O)(=O)c2ccc(Cl)cc2)c2ccc(Cl)cc2)cc1Cl (centres unmarked) [Example 18, N-(3-chloro-4-cyanophenyl)-3-[(4-chlorobenzene)sulfonyl]-2-(4-chlorophenyl)-2-hydroxypropanamide] | 7% | 1% | 27% | 6%
3 | N#Cc1ccc(S(=O)(=O)CC(O)(C(=O)Nc2ccc([N+](=O)[O-])c(Cl)c2)c2ccc(C(F)(F)F)cc2)cc1F (centres unmarked) [Example 19, N-(3-chloro-4-nitrophenyl)-3-[(4-cyano,3-fluorobenzene)sulfonyl]-2-hydroxy-2-[4-(trifluoromethyl)phenyl]propanamide] | 11% | 1% | 9% | 2%
4 | N#Cc1ccc(NC(=O)C(O)(CS(=O)(=O)c2ccc(F)cc2)c2ccc(C(F)(F)F)cc2)cc1C(F)(F)F (centres unmarked) [Example 21, N-(4-cyano-3-(trifluoromethyl)phenyl)-3-[(4-fluorobenzene)sulfonyl]-2-hydroxy-2-[4-(trifluoromethyl)phenyl]propanamide] | 24% | 1% | 3% | 4%
5 | CCS(=O)(=O)CC(O)(C(=O)Nc1ccc(C#N)c(Cl)c1)c1ccc(OC)c(F)c1 (centres unmarked) [Example 25, N-(3-chloro-4-cyanophenyl)-2-((3-fluoro-4-methoxy)phenyl)-3-(ethanesulfonyl)-2-hydroxypropanamide] | 22% | 6% | 9% | 9%
6 | N#Cc1ccc(NC(=O)C(O)(CS(=O)(=O)Cc2ccc(Cl)cc2)c2ccc(Cl)cc2)cc1Cl (centres unmarked) [Example 27, N-[3-chloro-4-cyanophenyl]-3-{[(4-chlorophenyl)methane]sulfonyl}-2-hydroxy-2-[4-(chloro)phenyl]propanamide] | 14% | 1% | 6% | 1%
7 | COc1ccc(C(O)(CS(=O)(=O)Cc2ccc(F)cc2)C(=O)Nc2ccc(C#N)c(Cl)c2)cc1F (centres unmarked) [Example 32, N-(3-chloro-4-cyanophenyl)-2-(3-fluoro-4-methoxyphenyl)-3-{[(4-fluorophenyl)methane]sulfonyl}-2-hydroxypropanamide] | 24% | 2% | 3% | 2%
8 | N#Cc1ccc(NC(=O)C(O)(CS(=O)(=O)Cc2ccc(F)cc2)c2cccc(C(F)(F)F)c2)cc1Cl (centres unmarked) [Example 40, N-(3-chloro-4-cyanophenyl)-3-{[(4-fluorophenyl)methane]sulfonyl}-2-hydroxy-2-[3-(trifluoromethyl)phenyl]propanamide] | 22% | 2% | 2% | 1%
